Experimental data reported in ChEMBL document CHEMBL1944604, “Aminopurine based JNK inhibitors for the prevention of ischemia reperfusion injury” (Bioorg Med Chem Lett, 2012).

Columns and labels:
[1] = Metabolic stability of the compound in rat liver microsomes assessed as compound remaining at 3 uM after 30 mins; assay type: ADME, Microsome; settings: read-out: Stability
[2] = Metabolic stability of the compound in dog liver microsomes assessed as compound remaining at 3 uM after 30 mins; assay type: ADME, Canis lupus familiaris, Microsome; settings: read-out: Stability
[3] = target: T1, c-Jun N-terminal kinase, JNK (Homo sapiens, UniProt P45983+P53779+P45984); experiment: Inhibition of JNK-mediated cJun phosphorylation in human Jurkat T cells by Western blotting; assay type: cell-based
[4] = target: Mitogen-activated protein kinase 9 (Homo sapiens, UniProt P45984); experiment: Inhibition of full length Hexa-His-tagged JNK2 using GST-tagged cJun and [gamma33P]ATP as substrate after 60 mins by scintillation counting
[5] = target: Mitogen-activated protein kinase 10 (Homo sapiens, UniProt P53779); experiment: Inhibition of full length Hexa-His-tagged JNK3 using GST-tagged cJun and [gamma33P]ATP as substrate after 60 mins by scintillation counting
[6] = target: Mitogen-activated protein kinase 14 (Homo sapiens, UniProt Q16539); experiment: Inhibition of p38alpha using MBP and [gamma33P]ATP as substrate after 60 mins by scintillation counting
[7] = target: T1, c-Jun N-terminal kinase, JNK; experiment: Inhibition of JNK-mediated cJun phosphorylation in anisomysin-stimulated human Jurkat T cells pretreated for 30 mins before anisomysin stimulation measured after 10 mins by DELFIA assay; assay type: cell-based
[8] = Clearance in rat at 2 to 10 mg/kg, iv; assay type: ADME, organism-based; design: dose 2-10 mg/kg, route intravenous; settings: in vivo
Mus musculus [9] = experiment: Hepatoprotective activity in BALB/c mouse assessed as inhibition of concanavalin A-induced ALT elevation at 30 mg/kg, ip administered 1 hr prior Con A challenge; assay type: functional; settings: route intraperitoneal
Mus musculus [10] = experiment: Hepatoprotective activity in BALB/c mouse assessed as inhibition of concanavalin A-induced ALT elevation at 60 mg/kg, ip administered 1 hr prior Con A challenge; assay type: functional; settings: route intraperitoneal
Rattus norvegicus [11] = experiment: Antiischemic activity in Lewis rat ischemia reperfusion model assessed as increase in survival rate at 3 mg/kg, iv bolus administered 15 mins before ischemia challenge relative to control; assay type: functional
Rattus norvegicus [12] = experiment: Antiischemic activity in Lewis rat ischemia reperfusion model assessed as increase in survival rate at 10 mg/kg, iv bolus administered 15 mins before ischemia challenge relative to control; assay type: functional
[13] = Half life in rat at 2 to 10 mg/kg, iv bolus; assay type: ADME, organism-based; design: dose 2-10 mg/kg, route intravenous; settings: in vivo
[14] = Volume of distribution at steady state in rat at 10 mg/kg, iv infusion; assay type: ADME, organism-based; design: dose 10 mg/kg, route intravenous; settings: in vivo, read-out: Vdss
[15] = Half life in rat at 10 mg/kg, iv infusion; assay type: ADME, organism-based; design: dose 10 mg/kg, route intravenous; settings: in vivo
[16] = Volume of distribution at steady state in dog at 1 mg/kg, iv bolus; assay type: ADME, organism-based, Canis lupus familiaris; design: dose 1 mg/kg, route intravenous; settings: in vivo, read-out: Vdss
[17] = AUC in dog at 1 mg/kg, iv bolus; assay type: ADME, organism-based, Canis lupus familiaris; design: dose 1 mg/kg, route intravenous; settings: plasma
[18] = Half life in dog at 1 mg/kg, iv bolus; assay type: ADME, organism-based, Canis lupus familiaris; design: dose 1 mg/kg, route intravenous; settings: in vivo
[19] = Volume of distribution at steady state in cynomolgus monkey at 1 mg/kg, iv bolus; assay type: ADME, organism-based, Macaca fascicularis; design: dose 1 mg/kg, route intravenous; settings: in vivo, read-out: Vdss
[20] = AUC in cynomolgus monkey at 1 mg/kg, iv bolus; assay type: ADME, organism-based, Macaca fascicularis; design: dose 1 mg/kg, route intravenous; settings: plasma
[21] = Half life in cynomolgus monkey at 1 mg/kg, iv bolus; assay type: ADME, organism-based, Macaca fascicularis; design: dose 1 mg/kg, route intravenous; settings: in vivo
[22] = Mean residence time in cynomolgus monkey at 1 mg/kg, iv bolus; assay type: ADME, organism-based, Macaca fascicularis; design: dose 1 mg/kg, route intravenous; settings: in vivo
Cytochrome P450 1A2 = target: T2, Cytochrome P450 1A2 (Homo sapiens, UniProt P05177); experiment: Inhibition of recombinant CYP1A2 up to 30 uM; assay type: ADME; settings: recombinant enzyme
T2 sequence (P05177 whole entry): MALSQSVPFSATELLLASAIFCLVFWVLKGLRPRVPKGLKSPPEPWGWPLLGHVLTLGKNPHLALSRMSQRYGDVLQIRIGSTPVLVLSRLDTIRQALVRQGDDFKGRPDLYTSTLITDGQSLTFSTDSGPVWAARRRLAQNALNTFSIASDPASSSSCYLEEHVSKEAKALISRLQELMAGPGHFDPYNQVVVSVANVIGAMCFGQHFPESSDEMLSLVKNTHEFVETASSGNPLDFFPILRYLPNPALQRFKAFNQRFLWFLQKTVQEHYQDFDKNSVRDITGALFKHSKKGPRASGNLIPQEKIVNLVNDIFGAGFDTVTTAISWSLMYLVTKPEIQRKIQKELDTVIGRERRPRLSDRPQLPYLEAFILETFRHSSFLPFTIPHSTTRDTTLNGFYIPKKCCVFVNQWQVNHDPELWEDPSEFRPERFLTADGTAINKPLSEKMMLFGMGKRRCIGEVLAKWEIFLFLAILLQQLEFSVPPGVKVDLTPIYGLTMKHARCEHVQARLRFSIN

Cytochrome P450 2C9 = Cytochrome P450 2C9 (Homo sapiens, UniProt P11712); experiment: Inhibition of recombinant CYP2C9 up to 30 uM; assay type: ADME; settings: recombinant enzyme
Cytochrome P450 2D6 = Cytochrome P450 2D6 (Homo sapiens, UniProt P10635); experiment: Inhibition of recombinant CYP2D6 up to 30 uM; assay type: ADME; settings: recombinant enzyme
Cytochrome P450 3A4 = Cytochrome P450 3A4 (Homo sapiens, UniProt P08684); experiment: Inhibition of CYP3A4 in human liver microsomes up to 30 uM; assay type: ADME, Microsome
CYP2B6 = target: T3, CYP2B6 (Homo sapiens, UniProt P20813); experiment: Drug metabolism assessed as CYP2B6-mediated compound loss after 30 mins; assay type: ADME; settings: recombinant enzyme; read-out: Drug metabolism
T3 sequence (P20813 whole entry): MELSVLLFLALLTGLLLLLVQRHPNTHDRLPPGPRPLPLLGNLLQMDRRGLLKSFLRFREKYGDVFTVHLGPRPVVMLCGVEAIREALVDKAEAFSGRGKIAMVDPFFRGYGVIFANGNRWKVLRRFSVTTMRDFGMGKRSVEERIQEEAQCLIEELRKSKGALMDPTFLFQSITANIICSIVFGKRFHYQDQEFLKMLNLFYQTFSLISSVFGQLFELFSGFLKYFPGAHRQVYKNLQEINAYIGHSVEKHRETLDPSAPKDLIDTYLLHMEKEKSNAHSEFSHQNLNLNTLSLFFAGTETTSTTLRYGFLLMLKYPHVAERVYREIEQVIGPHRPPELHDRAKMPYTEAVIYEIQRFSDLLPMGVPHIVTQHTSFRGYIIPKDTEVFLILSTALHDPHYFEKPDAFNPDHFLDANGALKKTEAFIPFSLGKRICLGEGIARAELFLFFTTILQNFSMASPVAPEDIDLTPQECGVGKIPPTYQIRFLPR

CYP3A4 = CYP3A4 (Homo sapiens, UniProt P08684); experiment: Drug metabolism assessed as CYP3A4-mediated compound loss after 30 mins; assay type: ADME; settings: recombinant enzyme; read-out: Drug metabolism
CYP2D6 = CYP2D6 (Homo sapiens, UniProt P10635); experiment: Drug metabolism assessed as CYP2D6-mediated compound loss after 30 mins; assay type: ADME; settings: recombinant enzyme; read-out: Drug metabolism
Hepatocyte = experiment: Drug metabolism in mouse hepatocytes after 60 mins; assay type: ADME, cell-based; settings: 1 h
Salmonella typhimurium = experiment: Induction of mutagenesis in Salmonella Typhimurium by Ames test; assay type: toxicity, organism-based; settings: salmonella enterica subsp. enterica serovar typhimurium
hERG (KCNH2) = hERG (KCNH2) (Homo sapiens, UniProt Q12809); experiment: Inhibition of human ERG at 10 uM
Rattus norvegicus [23] = experiment: Toxicity in rat non-anesthetized rat at 10 mg/kg, iv infusion administered 4 hrs for 4 consecutive days; assay type: organism-based; design: dose 10 mg/kg, route intravenous; settings: in vivo

Chain of Mitogen-activated protein kinase 10 (P53779 whole entry): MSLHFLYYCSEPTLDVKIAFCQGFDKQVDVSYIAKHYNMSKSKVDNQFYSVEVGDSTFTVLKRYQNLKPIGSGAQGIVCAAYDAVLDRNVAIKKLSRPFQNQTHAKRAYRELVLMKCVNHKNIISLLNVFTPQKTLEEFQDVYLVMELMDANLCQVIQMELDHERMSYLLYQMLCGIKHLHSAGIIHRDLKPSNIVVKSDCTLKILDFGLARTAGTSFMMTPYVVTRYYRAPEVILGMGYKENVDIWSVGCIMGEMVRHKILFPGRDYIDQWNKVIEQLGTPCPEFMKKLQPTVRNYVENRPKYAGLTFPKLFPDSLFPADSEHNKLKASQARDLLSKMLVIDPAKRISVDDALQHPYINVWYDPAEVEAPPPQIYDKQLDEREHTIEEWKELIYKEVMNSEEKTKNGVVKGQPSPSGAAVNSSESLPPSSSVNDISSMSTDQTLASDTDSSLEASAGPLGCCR
Chain of Mitogen-activated protein kinase 9 (P45984 whole entry): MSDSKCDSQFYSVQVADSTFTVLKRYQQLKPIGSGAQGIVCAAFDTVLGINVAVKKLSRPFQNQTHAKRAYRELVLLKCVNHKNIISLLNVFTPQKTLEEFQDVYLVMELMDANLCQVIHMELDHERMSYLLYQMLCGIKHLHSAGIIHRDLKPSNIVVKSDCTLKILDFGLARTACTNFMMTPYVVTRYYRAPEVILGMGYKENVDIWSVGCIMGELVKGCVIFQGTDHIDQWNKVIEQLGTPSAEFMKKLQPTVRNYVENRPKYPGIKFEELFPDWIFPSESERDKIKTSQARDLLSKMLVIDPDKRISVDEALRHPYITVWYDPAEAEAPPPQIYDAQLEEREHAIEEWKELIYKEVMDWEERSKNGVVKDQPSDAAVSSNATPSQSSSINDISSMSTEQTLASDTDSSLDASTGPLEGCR
Chain of Cytochrome P450 2D6 (P10635 whole entry): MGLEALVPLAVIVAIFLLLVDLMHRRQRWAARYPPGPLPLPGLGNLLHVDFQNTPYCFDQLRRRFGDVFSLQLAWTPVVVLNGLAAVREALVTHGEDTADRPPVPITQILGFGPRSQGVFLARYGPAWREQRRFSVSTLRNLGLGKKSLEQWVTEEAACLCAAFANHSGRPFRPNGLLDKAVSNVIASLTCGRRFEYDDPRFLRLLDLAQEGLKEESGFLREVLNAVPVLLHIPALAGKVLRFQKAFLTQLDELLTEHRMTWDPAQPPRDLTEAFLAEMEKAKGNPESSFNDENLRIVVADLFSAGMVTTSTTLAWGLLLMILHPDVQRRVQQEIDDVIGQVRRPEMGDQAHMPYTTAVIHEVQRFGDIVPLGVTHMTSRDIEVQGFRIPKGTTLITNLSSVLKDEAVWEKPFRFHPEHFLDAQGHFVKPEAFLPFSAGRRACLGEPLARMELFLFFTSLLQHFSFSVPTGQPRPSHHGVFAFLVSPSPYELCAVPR
Chain of CYP2D6 (P10635 whole entry): as above
Chain of Mitogen-activated protein kinase 14 (Q16539 whole entry): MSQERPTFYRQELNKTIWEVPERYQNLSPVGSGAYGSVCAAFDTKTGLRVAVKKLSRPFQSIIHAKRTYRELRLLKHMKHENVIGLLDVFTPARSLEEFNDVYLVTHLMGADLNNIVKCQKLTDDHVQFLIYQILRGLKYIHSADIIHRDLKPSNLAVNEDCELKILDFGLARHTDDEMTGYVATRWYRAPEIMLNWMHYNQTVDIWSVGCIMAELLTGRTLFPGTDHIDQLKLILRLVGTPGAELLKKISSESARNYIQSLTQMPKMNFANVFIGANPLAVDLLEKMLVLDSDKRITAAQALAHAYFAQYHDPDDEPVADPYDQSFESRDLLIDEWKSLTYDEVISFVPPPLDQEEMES
Chain of hERG (KCNH2) (Q12809 whole entry, the tested form may be a part): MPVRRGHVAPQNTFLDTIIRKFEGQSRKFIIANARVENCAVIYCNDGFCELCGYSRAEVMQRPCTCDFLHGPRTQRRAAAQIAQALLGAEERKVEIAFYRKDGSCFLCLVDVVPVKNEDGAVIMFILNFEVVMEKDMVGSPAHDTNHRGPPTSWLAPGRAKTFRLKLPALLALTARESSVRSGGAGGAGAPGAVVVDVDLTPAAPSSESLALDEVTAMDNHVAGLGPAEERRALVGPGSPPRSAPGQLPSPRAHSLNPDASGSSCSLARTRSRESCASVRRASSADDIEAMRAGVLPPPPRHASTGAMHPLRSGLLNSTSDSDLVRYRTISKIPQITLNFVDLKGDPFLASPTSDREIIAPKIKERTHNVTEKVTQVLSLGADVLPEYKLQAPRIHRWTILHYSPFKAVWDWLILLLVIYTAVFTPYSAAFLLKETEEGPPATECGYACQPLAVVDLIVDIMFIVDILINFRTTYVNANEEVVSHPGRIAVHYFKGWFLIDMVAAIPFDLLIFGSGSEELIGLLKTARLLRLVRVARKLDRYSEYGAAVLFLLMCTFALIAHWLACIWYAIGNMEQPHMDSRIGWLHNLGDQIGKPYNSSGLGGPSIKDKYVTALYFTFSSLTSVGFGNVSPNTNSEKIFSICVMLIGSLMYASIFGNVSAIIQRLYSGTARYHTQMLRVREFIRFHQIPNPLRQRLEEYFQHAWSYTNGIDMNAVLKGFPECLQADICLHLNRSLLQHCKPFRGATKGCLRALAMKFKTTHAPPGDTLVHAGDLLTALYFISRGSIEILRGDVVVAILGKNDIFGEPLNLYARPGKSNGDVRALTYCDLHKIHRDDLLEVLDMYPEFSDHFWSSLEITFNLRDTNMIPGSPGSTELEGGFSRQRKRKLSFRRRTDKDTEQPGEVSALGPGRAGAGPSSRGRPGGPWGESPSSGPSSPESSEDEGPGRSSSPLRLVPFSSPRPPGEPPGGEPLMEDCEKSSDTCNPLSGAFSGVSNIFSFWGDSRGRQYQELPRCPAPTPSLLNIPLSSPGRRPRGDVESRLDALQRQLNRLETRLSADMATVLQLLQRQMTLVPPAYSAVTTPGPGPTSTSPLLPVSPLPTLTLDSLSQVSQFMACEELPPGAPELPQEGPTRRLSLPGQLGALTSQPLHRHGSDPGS
Chain of Cytochrome P450 3A4 (P08684 whole entry): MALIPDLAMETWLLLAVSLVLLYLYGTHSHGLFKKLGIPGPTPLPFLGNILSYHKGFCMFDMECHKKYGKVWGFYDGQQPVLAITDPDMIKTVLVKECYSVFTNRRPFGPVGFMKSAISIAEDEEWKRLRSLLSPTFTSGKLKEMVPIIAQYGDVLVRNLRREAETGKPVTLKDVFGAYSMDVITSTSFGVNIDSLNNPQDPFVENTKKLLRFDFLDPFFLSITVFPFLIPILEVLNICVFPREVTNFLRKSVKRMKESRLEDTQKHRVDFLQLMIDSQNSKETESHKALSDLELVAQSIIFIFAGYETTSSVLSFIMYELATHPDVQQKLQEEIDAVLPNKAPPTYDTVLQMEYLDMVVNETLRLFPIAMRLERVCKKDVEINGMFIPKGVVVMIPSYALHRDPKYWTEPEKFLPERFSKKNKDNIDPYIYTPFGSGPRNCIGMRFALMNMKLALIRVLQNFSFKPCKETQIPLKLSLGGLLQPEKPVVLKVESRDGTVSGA
Chain of CYP3A4 (P08684 whole entry): as above
Chain of Cytochrome P450 2C9 (P11712 whole entry): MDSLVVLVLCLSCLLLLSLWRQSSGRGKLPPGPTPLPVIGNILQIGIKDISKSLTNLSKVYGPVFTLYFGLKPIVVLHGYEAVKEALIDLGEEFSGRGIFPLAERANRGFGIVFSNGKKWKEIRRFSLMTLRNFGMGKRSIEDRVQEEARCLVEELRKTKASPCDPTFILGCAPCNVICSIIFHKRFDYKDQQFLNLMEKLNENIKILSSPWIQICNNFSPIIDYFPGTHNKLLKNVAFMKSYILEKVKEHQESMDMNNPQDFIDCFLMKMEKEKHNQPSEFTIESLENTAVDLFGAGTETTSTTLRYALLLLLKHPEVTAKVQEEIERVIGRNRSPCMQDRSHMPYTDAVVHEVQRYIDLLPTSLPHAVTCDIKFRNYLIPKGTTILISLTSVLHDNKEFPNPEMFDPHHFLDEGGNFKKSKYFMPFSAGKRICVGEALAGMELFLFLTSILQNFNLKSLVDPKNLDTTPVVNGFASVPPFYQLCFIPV

N[C@H]1CC[C@H](Nc2ncc3nc(Nc4ccc(F)cc4F)n(C4CCCC4)c3n2)CC1
remaining at 0.5 h, 3 µM [1]: 92% | remaining at 0.5 h, 3 µM [2]: 100% | IC50 [3]: 400 nM | IC50 [4]: 25 nM | IC50 [5]: 24 nM | IC50 [6]: 220 nM | IC50 [7]: 350 nM | clearance [8]: 66 mL/min/kg | inhibition in vivo at 30 mg/kg (Mus musculus [9]): 41% | inhibition in vivo at 60 mg/kg (Mus musculus [10]): 98% | survival at 3 mg/kg (Rattus norvegicus [11]): 60% | survival at 10 mg/kg (Rattus norvegicus [12]): 80% | half-life [13]: 17 h | Vd [14]: 55 L/kg | half-life [15]: 10 h | Vd [16]: 30 L/kg | AUC [17]: 1.2 µM·h | half-life [18]: 17 h | Vd [19]: 11 L/kg | AUC [20]: 7 µM·h | half-life [21]: 37 h | MRT [22]: 40 h | inhibition (INH) (Cytochrome P450 1A2): Not Active | inhibition (INH) (Cytochrome P450 2C9): Not Active | inhibition (INH) (Cytochrome P450 2D6): Not Active | inhibition (INH) (Cytochrome P450 3A4): Not Active | metabolised at 0.5 h (CYP2B6): 14% | metabolised at 0.5 h (CYP3A4): 10% | metabolised at 0.5 h (CYP2D6): 1.4% | Drug metabolism (Hepatocyte): Not Active | Activity (Salmonella typhimurium): Non-toxic | inhibition at 10 µM (hERG (KCNH2)): 59% | Activity (Rattus norvegicus [23]): Non-toxic
